Data published in US7799809B2, “Carboxamide compounds and their use as calpain inhibitors” (Abbott GmbH & Co. KG, priority 2006, dated 2010).

Target: T1, cathepsin S (Homo sapiens, UniProt P25774)
T1 construct: purchased Calbiochem 219343; host or cells: E. coli
Experiment: Cathepsin S enzyme inhibition in vitro (kinetic fluorescence assay)
Format: biochemical
Settings: recombinant human cathepsin S vs calpain I
Description: The following solutions and buffers were employed: • HBS (for 40 ml): 800 μl M HEPES; 2.16 ml 100 mM KCl; 4.8 ml 1M NaCl; 3.59 ml 5% glucose; 60 μl μM MgSO4; 400 μl 100 mM Na pyruvate, 28.19 ml water; pH 7.2-7.5. • lysis buffer (for 20 ml): 400 μl M Tris pH 8.2; 2.74 ml 1M NaCl; 520 μl 0.5M EDTA; 2 ml 10% triton X-100; 0.8 ml (=1:25) CompletePlus (1 tablet/2 ml H2O); 200 μl 100 mM Pefabloc; 13.34 ml water, pH 8.2. • TBST (10×) (for 1 l): 100 mM Tris (12.1 g); 1.5M NaCl (87 g); 1% Tween 20 (10 g), adjusted to pH 8. I Enzyme Inhibition In Vitro: • Testing for blockade of the corresponding enzymic activities was carried out by means of kinetic fluorescence assays (excitation 390 nm, emission 460 nm). • Apparent Ki values were calculated from the experimentally determined IC50 values by the Cheng-Prussoff relation assuming a reversible competitive enzyme inhibition. The Km values of the substrates used under the assay conditions indicated above were: 90 μM (Z-Phe-Arg-AMC, cathepsin B), 10 μM (Z-Gly-Pro-Arg-AMC, cathepsin K), 2 μM (Z-Phe-Arg-AMC, cathepsin L), and 30 μM (Z-Val-Val-Arg-AMC, cathepsin S). • The indicated Ki values are averages of the inhibition constants calculated on the basis of 2 to 4 independent dose-effect plots.
The following assays were used: • 1. Calpain I: • 20 nM calpain-I—isolated from human erythrocytes (Calbiochem #208713), 100 μM Suc-Leu-Tyr-AMC (Bachem #1-1355) as substrate in buffer with 62 mM imidazole, 0.3 mM CaCl2, 0.10% CHAPS, 0.05% BSA, 1 mM DTT at pH 7.3 and room temperature. • 2. Cathepsin B: • 0.25 nM cathepsin B—isolated from human liver (Calbiochem #219362), 100 μM Z-Phe-Arg-AMC (Bachem #I-1160) as substrate 50 mM MES, 2 mM EDTA, 0.05% Brij 35, 2.5 mM L-cysteine, pH 6.0, room temperature. • 3. Cathepsin K: • 3 nM cathepsin K—activated from recombinant human procathepsin K from E. coli (Calbiochem #342001), 10 μM Z-Gly-Pro-Arg-AMC (Biomol #P-142) as substrate in 50 mM MES, 2 mM EDTA, 0.05% Brij 35, 2.5 mM L-cysteine, pH 6.0, room temperature. • 4. Cathepsin L: • 1 nM cathepsin L—isolated from human liver (Calbiochem #219402), 2 μM Z-Phe-Arg-AMC (Bachem #1-1160) as substrate in 50 mM MES, 2 mM EDTA, 0.05% Brij 35, 2.5 mM L-cysteine, pH 6.0, room temperature. • 5. Cathepsin S: • 0.5 nM recombinant human cathepsin S from E. coli (Calbiochem #219343), 20 μM Z-Val-Val-Arg-AMC (Bachem #1-1540) as substrate in 50 mM MES, 2 mM EDTA, 0.05% Brij 35, 2.5 mM L-cysteine, pH 6.0, room temperature. • The results of the in vitro determination are indicated in Table 1. The following abbreviations are used in Table 1: • The “Calpain activity” column, ++ stands for a calpain Ki (Ki(calpain)) of ≦40 nM and + means: 40 nM<Ki(Calpain)≦100 nM. • The “Sel. cat. B” column indicates the Ki(cathepsin B)/Ki(calpain) ratio. In this connection, ++ means a Ki(cathepsin B)/Ki(calpain) ratio of ≧30 and + means 10≦Ki(cathepsin B)/Ki(calpain)<30. • The “Sel. cat. K” column indicates the Ki(cathepsin K)/Ki(calpain) ratio. In this connection, ++ means a Ki(cathepsin K)/Ki(calpain) ratio of ≧30 and + means 10≦Ki(cathepsin K)/Ki(calpain)<30. • The “Sel. cat. L” column indicates the Ki(cathepsin L)/Ki(calpain) ratio. In this connection, ++ means a Ki(cathepsin L)/Ki(calpain) ratio of ≧50 and + means 30≦Ki(cathepsin L)/Ki(calpain)<50. • The “Sel. cat. S” column indicates the Ki(cathepsin S)/Ki(calpain) ratio. In this connection, ++ means a Ki(cathepsin S)/Ki(calpain) ratio of ≧100 and + means 50≦Ki(cathepsin S)/Ki(calpain)<100.

T1 sequence (P25774 115-331): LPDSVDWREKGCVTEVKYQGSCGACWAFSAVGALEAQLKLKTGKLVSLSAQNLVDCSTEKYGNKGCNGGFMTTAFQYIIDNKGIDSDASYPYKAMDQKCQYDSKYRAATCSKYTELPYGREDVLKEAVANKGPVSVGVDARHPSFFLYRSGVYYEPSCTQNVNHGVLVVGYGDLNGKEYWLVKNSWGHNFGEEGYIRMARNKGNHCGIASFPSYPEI

| SMILES | Sel cat. S: Ki(cathepsin S)/Ki(calpain) ratio |
| --- | --- |
| CCCCC(NC(=O)c1cccnc1-n1ccc(-c2ccccc2)n1)C(=O)C(N)=O (centres unmarked) [Example 6, N-{1-[Amino(oxo)acetyl]pentyl}-2-(3-phenyl-1H-pyrazol-1-yl)nicotinamide] | + (+ means 50≦Ki(cathepsin S)/Ki(calpain)<100) |
| NC(=O)C(=O)C(Cc1ccccc1)NC(=O)c1cccnc1-n1cnc(-c2ccc(N3CCOCC3)cc2)c1 (centres unmarked) [Example 14, N-(3-Amino-1-benzyl-2,3-dioxopropyl)-2-[4-(4-morpholin-4-ylphenyl)-1H-imidazol-1-yl]nicotinamide] | ++ (++ means a Ki(cathepsin S)/Ki(calpain) ratio of ≧100) |
| CCN(CC)c1ccc(-c2ccn(-c3ncccc3C(=O)NC(Cc3ccccc3)C(=O)C(N)=O)n2)cc1 (centres unmarked) [Example 42, N-(3-Amino-1-benzyl-2,3-dioxopropyl)-2-{3-[4-(diethylamino)phenyl]-1H-pyrazol-1-yl}nicotinamide] | ++ (++ means a Ki(cathepsin S)/Ki(calpain) ratio of ≧100) |
| CCN(CC)Cc1ccc(-c2ccn(-c3ncccc3C(=O)NC(Cc3ccccc3)C(=O)C(N)=O)n2)cc1.Cl (centres unmarked) [Example 43, N-(3-Amino-1-benzyl-2,3-dioxopropyl)-2-(3-{4-[(diethylamino)methyl]phenyl}-1H-pyrazol-1-yl)nicotinamide hydrochloride] | ++ (++ means a Ki(cathepsin S)/Ki(calpain) ratio of ≧100) |
| CCCCC(NC(=O)c1cccnc1-n1ccc(-c2ccc(CN(CC)CC)cc2)n1)C(=O)C(N)=O (centres unmarked) [Example 44, N-{1-[Amino(oxo)acetyl]pentyl}-2-(3-{4-[(diethylamino)methyl]phenyl}-1H-pyrazol-1-yl)nicotinamide] | + (+ means 50≦Ki(cathepsin S)/Ki(calpain)<100) |
| CCCCC(NC(=O)c1cccnc1-n1ccc(-c2ccc(CN3CCOCC3)cc2)n1)C(=O)C(N)=O (centres unmarked) [Example 45, N-{1-[Amino(oxo)acetyl]pentyl}-2-{3-[4-(morpholin-4-ylmethyl)phenyl]-1H-pyrazol-1-yl}nicotinamide] | + (+ means 50≦Ki(cathepsin S)/Ki(calpain)<100) |
| NC(=O)C(=O)C(Cc1ccccc1)NC(=O)c1cccnc1-n1ccc(-c2ccc(CN3CCOCC3)cc2)n1 (centres unmarked) [Example 46, N-(3-Amino-1-benzyl-2,3-dioxopropyl)-2-{3-[4-(morpholin-4-ylmethyl)phenyl]-1H-pyrazol-1-yl}nicotinamide] | ++ (++ means a Ki(cathepsin S)/Ki(calpain) ratio of ≧100) |
| CCCCC(NC(=O)c1cccnc1-n1ccc(-c2ccc(N(CC)CC)cc2)n1)C(=O)C(N)=O (centres unmarked) [Example 47, N-{1-[Amino(oxo)acetyl]pentyl}-2-{3-[4-(diethylamino)phenyl]-1H-pyrazol-1-yl}nicotinamide] | ++ (++ means a Ki(cathepsin S)/Ki(calpain) ratio of ≧100) |
| Cl.NC(=O)C(=O)C(Cc1ccccc1)NC(=O)c1cccnc1-n1ccc(-c2cccc(CN3CCOCC3)c2)n1 (centres unmarked) [Example 52, N-(3-Amino-1-benzyl-2,3-dioxopropyl)-2-{3-[3-(morpholin-4-ylmethyl)phenyl]-1H-pyrazol-1-yl}nicotinamide hydrochloride] | ++ (++ means a Ki(cathepsin S)/Ki(calpain) ratio of ≧100) |
| NC(=O)C(=O)C(Cc1ccccc1)NC(=O)c1cccnc1-n1ccc(-c2ccncc2)n1 (centres unmarked) [Example 65, N-(3-Amino-1-benzyl-2,3-dioxopropyl)-2-(3-pyridin-4-yl-1H-pyrazol-1-yl)nicotinamide] | ++ (++ means a Ki(cathepsin S)/Ki(calpain) ratio of ≧100) |
| NC(=O)C(=O)C(Cc1ccccc1)NC(=O)c1cccnc1-n1ccc(-c2ccc(-n3ccnc3)cc2)n1 (centres unmarked) [Example 101, N-[3-Amino-2,3-dioxo-1-(phenylmethyl)propyl]-2-{3-[4-(1H-imidazol-1-yl)phenyl]-1H-pyrazol-1-yl}pyridine-3-carboxamide] | ++ (++ means a Ki(cathepsin S)/Ki(calpain) ratio of ≧100) |
